ChEMBL document CHEMBL1157712, “Hit to lead account of the discovery of bisbenzamide and related ureidobenzamide inhibitors of Rho kinase” (J Med Chem, 2010)

Columns and labels:
[1] = biological target: Rho-associated protein kinase 2 (Homo sapiens, UniProt O75116)
Description: Inhibition of human ROCK2 by homogenous luciferase assay

[2] = biological target: Proto-oncogene tyrosine-protein kinase Src (Homo sapiens) (UniProt P12931); experiment: Inhibition of SRC at 3 uM relative to control; values are per cent of control
[3] = biological target: T1, Serine/threonine-protein kinase PLK1 (Homo sapiens, UniProt P53350); experiment: Inhibition of PLK1 at 3 uM relative to control; values are per cent of control
T1 sequence (P53350 whole entry): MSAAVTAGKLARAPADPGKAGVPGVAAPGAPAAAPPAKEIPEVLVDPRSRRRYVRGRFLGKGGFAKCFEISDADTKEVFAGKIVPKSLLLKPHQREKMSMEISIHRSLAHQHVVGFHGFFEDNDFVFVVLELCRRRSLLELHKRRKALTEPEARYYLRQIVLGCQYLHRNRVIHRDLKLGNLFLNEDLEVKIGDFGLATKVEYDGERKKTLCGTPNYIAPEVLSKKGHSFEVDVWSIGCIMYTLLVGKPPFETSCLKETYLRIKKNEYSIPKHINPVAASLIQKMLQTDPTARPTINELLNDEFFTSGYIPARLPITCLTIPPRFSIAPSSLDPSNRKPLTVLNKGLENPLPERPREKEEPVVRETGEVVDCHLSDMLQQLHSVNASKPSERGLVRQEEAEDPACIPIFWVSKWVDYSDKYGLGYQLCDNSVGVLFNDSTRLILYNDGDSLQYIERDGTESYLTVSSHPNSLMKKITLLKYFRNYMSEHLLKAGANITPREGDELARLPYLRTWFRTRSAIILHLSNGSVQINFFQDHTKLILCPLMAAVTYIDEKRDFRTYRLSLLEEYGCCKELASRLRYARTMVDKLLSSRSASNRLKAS

[4] = biological target: Protein kinase C alpha type (Homo sapiens) (UniProt P17252); experiment: Inhibition of PKCalpha; details: values are per cent of control
[5] = biological target: Mitogen-activated protein kinase 15 (Homo sapiens) (UniProt Q8TD08); experiment: Inhibition of ERK8 at 3 uM relative to control; values are per cent of control
Chain of Mitogen-activated protein kinase 15 (Homo sapiens) (Q8TD08 whole entry): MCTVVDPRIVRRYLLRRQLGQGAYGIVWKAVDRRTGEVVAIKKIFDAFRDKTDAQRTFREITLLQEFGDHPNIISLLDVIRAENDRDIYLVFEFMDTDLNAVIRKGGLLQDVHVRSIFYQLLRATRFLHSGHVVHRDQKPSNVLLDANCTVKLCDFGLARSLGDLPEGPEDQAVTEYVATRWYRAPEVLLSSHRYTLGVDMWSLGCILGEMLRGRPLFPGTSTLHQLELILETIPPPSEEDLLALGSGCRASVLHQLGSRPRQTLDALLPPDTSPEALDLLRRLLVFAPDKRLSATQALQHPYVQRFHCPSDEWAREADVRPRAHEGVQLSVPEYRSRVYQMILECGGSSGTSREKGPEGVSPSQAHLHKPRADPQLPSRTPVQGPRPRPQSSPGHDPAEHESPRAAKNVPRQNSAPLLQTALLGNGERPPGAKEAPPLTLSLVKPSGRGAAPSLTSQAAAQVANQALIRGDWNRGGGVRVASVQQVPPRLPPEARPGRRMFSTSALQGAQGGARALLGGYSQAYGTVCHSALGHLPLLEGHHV

[6] = biological target: Dual specificity mitogen-activated protein kinase kinase 1 (Homo sapiens) (UniProt Q02750); experiment: Inhibition of MKK1 at 3 uM relative to control; values are per cent of control
[7] = biological target: MAP kinase-activated protein kinase 3 (Homo sapiens) (UniProt Q16644); experiment: Inhibition of MAPKAPK3 at 3 uM relative to control; values are per cent of control
Chain of MAP kinase-activated protein kinase 3 (Homo sapiens) (Q16644 whole entry, looked up): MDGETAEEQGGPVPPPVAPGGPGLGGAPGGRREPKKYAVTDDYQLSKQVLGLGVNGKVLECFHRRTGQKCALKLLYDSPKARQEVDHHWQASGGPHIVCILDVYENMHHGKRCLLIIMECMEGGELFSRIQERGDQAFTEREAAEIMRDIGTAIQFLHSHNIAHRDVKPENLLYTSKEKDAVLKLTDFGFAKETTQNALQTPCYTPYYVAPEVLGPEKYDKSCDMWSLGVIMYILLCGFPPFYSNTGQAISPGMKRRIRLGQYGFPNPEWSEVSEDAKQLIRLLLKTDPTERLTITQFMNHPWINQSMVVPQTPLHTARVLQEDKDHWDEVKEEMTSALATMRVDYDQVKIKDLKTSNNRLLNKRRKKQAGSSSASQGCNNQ

[8] = biological target: SRSF protein kinase 1 (Homo sapiens) (UniProt Q96SB4); experiment: Inhibition of SRPK1 at 3 uM relative to control; values are per cent of control
Chain of SRSF protein kinase 1 (Homo sapiens) (Q96SB4 whole entry): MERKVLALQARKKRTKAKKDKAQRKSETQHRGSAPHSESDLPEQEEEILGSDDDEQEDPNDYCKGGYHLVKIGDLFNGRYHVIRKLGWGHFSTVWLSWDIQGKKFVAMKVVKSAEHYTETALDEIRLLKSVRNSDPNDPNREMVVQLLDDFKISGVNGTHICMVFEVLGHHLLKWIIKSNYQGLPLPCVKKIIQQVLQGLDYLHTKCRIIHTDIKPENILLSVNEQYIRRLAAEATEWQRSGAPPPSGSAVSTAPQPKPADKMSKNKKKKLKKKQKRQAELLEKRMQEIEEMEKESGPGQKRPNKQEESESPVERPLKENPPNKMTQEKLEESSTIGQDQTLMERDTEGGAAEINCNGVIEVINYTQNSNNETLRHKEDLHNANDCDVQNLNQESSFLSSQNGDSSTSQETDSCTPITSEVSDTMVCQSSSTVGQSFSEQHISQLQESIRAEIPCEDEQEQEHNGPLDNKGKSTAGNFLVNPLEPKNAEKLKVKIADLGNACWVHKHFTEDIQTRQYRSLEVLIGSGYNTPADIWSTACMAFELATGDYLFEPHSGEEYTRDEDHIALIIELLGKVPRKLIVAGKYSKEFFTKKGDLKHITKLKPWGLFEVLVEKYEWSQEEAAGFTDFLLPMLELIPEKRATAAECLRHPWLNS

[9] = biological target: Calcium/calmodulin-dependent protein kinase type 1 (Homo sapiens) (UniProt Q14012); experiment: Inhibition of CAMK1 at 3 uM relative to control; values are per cent of control
[10] = biological target: Mitogen-activated protein kinase 8 (Homo sapiens) (UniProt P45983); experiment: Inhibition of JNK1a1 at 3 uM relative to control; values are per cent of control
[11] = biological target: cGMP-dependent protein kinase 1 (Homo sapiens, UniProt Q13976); experiment: Inhibition of PRKG1
Chain of cGMP-dependent protein kinase 1 (Q13976 whole entry, canonical isoform): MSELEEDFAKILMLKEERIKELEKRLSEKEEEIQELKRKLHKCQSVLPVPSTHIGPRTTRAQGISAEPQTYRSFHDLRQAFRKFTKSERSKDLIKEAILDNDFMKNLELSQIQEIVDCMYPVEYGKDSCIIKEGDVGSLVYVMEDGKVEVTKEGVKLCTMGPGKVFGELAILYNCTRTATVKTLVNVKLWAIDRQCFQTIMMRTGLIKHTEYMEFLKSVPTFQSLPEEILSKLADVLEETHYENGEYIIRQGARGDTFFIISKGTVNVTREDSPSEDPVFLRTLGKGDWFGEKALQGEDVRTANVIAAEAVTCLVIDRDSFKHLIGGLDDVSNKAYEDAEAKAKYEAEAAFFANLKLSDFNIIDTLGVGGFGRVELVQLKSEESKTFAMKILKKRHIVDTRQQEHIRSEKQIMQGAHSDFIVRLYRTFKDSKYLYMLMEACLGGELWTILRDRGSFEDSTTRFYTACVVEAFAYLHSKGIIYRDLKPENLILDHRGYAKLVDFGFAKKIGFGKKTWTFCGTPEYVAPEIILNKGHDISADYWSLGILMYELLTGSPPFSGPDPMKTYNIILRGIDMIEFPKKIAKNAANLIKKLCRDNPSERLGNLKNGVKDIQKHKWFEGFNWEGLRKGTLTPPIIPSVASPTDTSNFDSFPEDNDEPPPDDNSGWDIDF

[12] = biological target: Casein kinase I isoform alpha (Homo sapiens) (UniProt P48729); experiment: Inhibition of CK1 at 3 uM relative to control; values are per cent of control
[13] = biological target: Serine/threonine-protein kinase MRCK beta (Homo sapiens) (UniProt Q9Y5S2); experiment: Inhibition of CDC42BPB
[14] = biological target: Ribosomal protein S6 kinase alpha-5 (Homo sapiens) (UniProt O75582); experiment: Inhibition of MSK1 at 3 uM relative to control; values are per cent of control
[15] = biological target: Mitogen-activated protein kinase 1 (Homo sapiens) (UniProt P28482); experiment: Inhibition of MAPK2 at 3 uM relative to control; values are per cent of control
[16] = biological target: Epithelial discoidin domain-containing receptor 1 (Homo sapiens) (UniProt Q08345); details: 3 to 6 uM
Description: Inhibition of DDR1 at 3 to 6 uM relative to control

[17] = biological target: MAP kinase-activated protein kinase 5 (Homo sapiens) (UniProt Q8IW41); details: 3 to 6 uM
Description: Inhibition of PRAK at 3 to 6 uM relative to control

[18] = biological target: T1, Serine/threonine-protein kinase PLK1; details: 3 to 6 uM
Description: Inhibition of PLK1 at 3 to 6 uM relative to control

[19] = biological target: Serine/threonine-protein kinase Nek7 (Homo sapiens) (UniProt Q8TDX7); details: 3 to 6 uM
Chain of Serine/threonine-protein kinase Nek7 (Homo sapiens) (Q8TDX7 whole entry, looked up): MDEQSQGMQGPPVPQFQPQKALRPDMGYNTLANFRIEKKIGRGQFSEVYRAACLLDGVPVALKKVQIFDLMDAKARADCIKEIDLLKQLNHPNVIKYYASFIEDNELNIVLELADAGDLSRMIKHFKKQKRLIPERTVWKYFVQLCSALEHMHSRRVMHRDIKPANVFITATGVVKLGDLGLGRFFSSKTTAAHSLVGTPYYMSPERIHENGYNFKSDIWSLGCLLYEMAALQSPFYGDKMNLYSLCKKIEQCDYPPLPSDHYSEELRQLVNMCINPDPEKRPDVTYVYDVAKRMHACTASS
Description: Inhibition of NEK7 at 3 to 6 uM relative to control

[20] = biological target: Serine/threonine-protein kinase 3 (Homo sapiens) (UniProt Q13188); details: 3 to 6 uM
Description: Inhibition of MST2 at 3 to 6 uM relative to control

Cytochrome P450 1A2 = biological target: T2, Cytochrome P450 1A2 (Homo sapiens, UniProt P05177); experiment: Inhibition of human CYP1A2 by fluorescence assay; type: ADME
T2 sequence (P05177 whole entry): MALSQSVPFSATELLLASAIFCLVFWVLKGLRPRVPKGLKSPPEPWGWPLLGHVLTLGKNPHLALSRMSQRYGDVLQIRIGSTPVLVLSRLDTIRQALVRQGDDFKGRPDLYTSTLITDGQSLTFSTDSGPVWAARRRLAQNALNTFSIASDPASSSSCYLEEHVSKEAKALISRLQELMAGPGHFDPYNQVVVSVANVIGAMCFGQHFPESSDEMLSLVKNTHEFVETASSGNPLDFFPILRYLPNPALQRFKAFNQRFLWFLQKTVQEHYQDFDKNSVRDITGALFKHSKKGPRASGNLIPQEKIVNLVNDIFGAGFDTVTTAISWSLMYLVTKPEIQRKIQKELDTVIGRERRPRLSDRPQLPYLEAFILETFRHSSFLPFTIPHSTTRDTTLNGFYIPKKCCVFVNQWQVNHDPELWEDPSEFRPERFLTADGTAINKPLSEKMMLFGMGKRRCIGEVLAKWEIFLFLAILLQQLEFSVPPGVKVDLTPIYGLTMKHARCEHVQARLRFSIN

[21] = biological target: Receptor-interacting serine/threonine-protein kinase 4 (Homo sapiens) (UniProt P57078); details: 3 to 6 uM
Description: Inhibition of ANKRD3 at 3 to 6 uM relative to control

[22] = biological target: Leucine-rich repeat serine/threonine-protein kinase 2 (Homo sapiens) (UniProt Q5S007); details: 3 to 6 uM
Description: Inhibition of LRRK2 at 3 to 6 uM relative to control

[23] = biological target: Serine/threonine-protein kinase Chk1 (Homo sapiens) (UniProt O14757); details: 3 to 6 uM
Description: Inhibition of CHK1 at 3 to 6 uM relative to control

[24] = biological target: Ribosomal protein S6 kinase beta-1 (Homo sapiens) (UniProt P23443); details: 3 to 6 uM
Description: Inhibition of S6K1 at 3 to 6 uM relative to control

[25] = biological target: Serine/threonine-protein kinase haspin (Homo sapiens) (UniProt Q8TF76); details: 3 to 6 uM
Description: Inhibition of GSG2 at 3 to 6 uM relative to control

[26] = biological target: SRSF protein kinase 1 (Homo sapiens) (UniProt Q96SB4); details: 3 to 6 uM
Description: Inhibition of SRPK1 at 3 to 6 uM relative to control

[27] = biological target: Insulin-like growth factor 1 receptor (Homo sapiens) (UniProt P08069); details: 3 to 6 uM
Description: Inhibition of IGF1R at 3 to 6 uM relative to control

Caspase-1 (Homo sapiens) = Caspase-1 (Homo sapiens) (UniProt P29466); details: 3 to 6 uM
Description: Inhibition of ICE at 3 to 6 uM relative to control

[28] = biological target: Dual specificity protein kinase CLK1 (Homo sapiens) (UniProt P49759); details: 3 to 6 uM
Chain of Dual specificity protein kinase CLK1 (Homo sapiens) (P49759 whole entry, looked up): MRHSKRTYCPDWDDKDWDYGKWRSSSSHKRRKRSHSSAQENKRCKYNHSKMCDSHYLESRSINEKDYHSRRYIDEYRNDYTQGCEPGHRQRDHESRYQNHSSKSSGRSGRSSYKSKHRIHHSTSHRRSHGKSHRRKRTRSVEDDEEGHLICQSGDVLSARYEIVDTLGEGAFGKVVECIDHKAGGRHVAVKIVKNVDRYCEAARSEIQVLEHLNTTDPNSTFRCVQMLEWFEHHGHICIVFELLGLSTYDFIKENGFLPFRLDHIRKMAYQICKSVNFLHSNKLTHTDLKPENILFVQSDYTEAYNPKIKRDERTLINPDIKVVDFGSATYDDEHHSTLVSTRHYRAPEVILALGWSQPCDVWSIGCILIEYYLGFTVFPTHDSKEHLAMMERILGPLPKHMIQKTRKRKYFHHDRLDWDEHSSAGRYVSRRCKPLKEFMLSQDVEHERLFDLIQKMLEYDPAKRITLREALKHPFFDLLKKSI
Description: Inhibition of CLK1 at 3 to 6 uM relative to control

[29] = biological target: Eukaryotic elongation factor 2 kinase (Homo sapiens) (UniProt O00418); details: 3 to 6 uM
Description: Inhibition of EF2K at 3 to 6 uM relative to control

[30] = biological target: Protein kinase C delta type (Homo sapiens, UniProt Q05655); experiment: Inhibition of PRKCD
[31] = biological target: Serine/threonine-protein kinase 26 (Homo sapiens, UniProt Q9P289); experiment: Inhibition of MST4

Chain of Rho-associated protein kinase 2 (O75116 whole entry): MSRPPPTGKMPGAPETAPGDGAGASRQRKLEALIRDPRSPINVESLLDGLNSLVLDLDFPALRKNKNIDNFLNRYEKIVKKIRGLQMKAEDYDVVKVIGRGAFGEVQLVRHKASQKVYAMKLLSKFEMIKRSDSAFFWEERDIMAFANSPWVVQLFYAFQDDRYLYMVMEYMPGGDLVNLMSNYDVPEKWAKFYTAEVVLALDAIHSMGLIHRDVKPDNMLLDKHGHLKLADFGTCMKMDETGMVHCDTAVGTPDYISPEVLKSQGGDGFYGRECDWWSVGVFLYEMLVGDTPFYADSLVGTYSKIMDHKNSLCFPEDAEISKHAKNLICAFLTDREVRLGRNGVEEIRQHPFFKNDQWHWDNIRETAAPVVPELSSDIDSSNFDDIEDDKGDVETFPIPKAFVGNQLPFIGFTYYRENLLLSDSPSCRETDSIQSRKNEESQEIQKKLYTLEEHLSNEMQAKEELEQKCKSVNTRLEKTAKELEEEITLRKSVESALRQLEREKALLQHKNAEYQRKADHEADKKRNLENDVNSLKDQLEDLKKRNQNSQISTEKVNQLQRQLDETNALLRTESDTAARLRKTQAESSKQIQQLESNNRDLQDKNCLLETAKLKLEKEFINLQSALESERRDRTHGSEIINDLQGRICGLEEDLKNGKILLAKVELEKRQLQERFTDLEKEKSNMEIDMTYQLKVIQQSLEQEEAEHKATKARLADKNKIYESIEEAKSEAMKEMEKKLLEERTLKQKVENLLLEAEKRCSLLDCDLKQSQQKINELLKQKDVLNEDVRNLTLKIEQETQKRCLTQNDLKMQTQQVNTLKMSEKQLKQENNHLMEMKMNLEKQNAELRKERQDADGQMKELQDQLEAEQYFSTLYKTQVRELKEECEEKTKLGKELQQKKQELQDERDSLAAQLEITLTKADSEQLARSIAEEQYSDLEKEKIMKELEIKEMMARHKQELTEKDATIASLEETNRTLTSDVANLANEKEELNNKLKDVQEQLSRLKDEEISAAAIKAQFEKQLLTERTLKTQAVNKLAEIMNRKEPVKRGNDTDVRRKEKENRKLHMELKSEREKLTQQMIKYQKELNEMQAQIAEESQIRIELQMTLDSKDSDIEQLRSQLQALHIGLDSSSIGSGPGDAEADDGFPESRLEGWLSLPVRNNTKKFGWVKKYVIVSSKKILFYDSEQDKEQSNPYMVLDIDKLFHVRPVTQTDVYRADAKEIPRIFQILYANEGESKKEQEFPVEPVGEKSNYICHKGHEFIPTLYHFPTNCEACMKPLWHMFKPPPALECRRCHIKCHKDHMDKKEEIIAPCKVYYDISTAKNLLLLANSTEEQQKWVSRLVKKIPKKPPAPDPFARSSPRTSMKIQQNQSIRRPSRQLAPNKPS

NC(=O)c1ccc(NC(=O)NCc2cccc(C(=O)Nc3ccc4c(c3)CNCC4)c2)cc1
IC50 [1]: 0.004 µM | residual activity [2]: > 50% | residual activity [3]: > 50% | residual activity [4]: 50% | residual activity [5]: > 50% | residual activity [6]: > 50% | residual activity [7]: > 50% | residual activity [8]: > 50% | residual activity [9]: > 50% | residual activity [10]: > 50% | IC50 [11]: 3 µM | residual activity [12]: > 50% | IC50 [13]: > 5 µM | residual activity [14]: > 50% | residual activity [15]: > 50%

COc1ccc(C(=O)NCc2cccc(C(=O)Nc3ccc4c(c3)CNCC4)c2)cc1OC
residual activity [16]: > 50% | residual activity [17]: > 50% | IC50 [1]: 0.033 µM | residual activity [18]: > 50% | residual activity [19]: > 50% | residual activity [20]: > 50% | IC50 (Cytochrome P450 1A2): > 30 µM | residual activity [21]: > 50% | residual activity [22]: > 50% | residual activity [23]: > 50% | IC50 [11]: 5.6 µM | residual activity [24]: > 50% | residual activity [25]: > 50% | residual activity [26]: > 50% | residual activity [27]: > 50% | residual activity (Caspase-1 (Homo sapiens)): > 50% | residual activity [28]: > 50% | residual activity [29]: > 50% | IC50 [30]: > 10 µM | IC50 [31]: > 10 µM
